Data from patent publication US20260262643A1, “HERBICIDAL BENZOXAZINES” (FMC CORPORATION, priority 2022, published 2026).

Key:
corn [1] = assay: Test A preemergence; assay type: in vivo, Zea mays
How it was run: (§1)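 Visual injury ratings on a 0–100 scale (100 = complete control) versus untreated controls, taken 10 days after treatment in greenhouse. Preemergence: directed soil spray onto seeded loam/sand. Postemergence: foliar application at one- to two-leaf stage, plants 2–10 cm. Formulation: non-phytotoxic solvent plus surfactant.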

wheat [2] = assay: Test A postemergence; assay type: in vivo, Triticum aestivum; conditions: postemergence, 10 days; for Plant response rating, Wheat: 500 g ai/ha, visual injury, 0 to 100 scale (0 no effect, 100 complete control)
How it was run: as §1

kochia [3] = assay: Test A postemergence; assay type: in vivo, Bassia scoparia; conditions: postemergence, 10 days; for Plant response rating, Kochia: visual injury, 0 to 100 scale (0 no effect, 100 complete control)
How it was run: as §1

horseweed = assay: Test A postemergence; assay type: in vivo, Erigeron canadensis; conditions: postemergence, 10 days; for Plant response rating, Horseweed: visual injury, 0 to 100 scale (0 no effect, 100 complete control)
How it was run: as §1

oat, wild [4] = assay: Test A preemergence; assay type: in vivo, Avena fatua
How it was run: as §1

ryegrass, Italian [5] = assay: Test A postemergence; assay type: in vivo, Lolium multiflorum; conditions: postemergence, 10 days; for Plant response rating, Ryegrass, Italian: 500 g ai/ha, visual injury, 0 to 100 scale (0 no effect, 100 complete control)
How it was run: as §1

ragweed [6] = assay: Test A postemergence; assay type: in vivo, Ambrosia artemisiifolia; conditions: postemergence, 10 days; for Plant response rating, Ragweed: 500 g ai/ha, visual injury, 0 to 100 scale (0 no effect, 100 complete control)
How it was run: as §1

ryegrass, Italian [7] = assay: Test A preemergence; assay type: in vivo, Lolium multiflorum
How it was run: as §1

goosegrass [8] = assay: Test A postemergence; assay type: in vivo, Eleusine indica; conditions: postemergence, 10 days; for Plant response rating, Goosegrass: visual injury, 0 to 100 scale (0 no effect, 100 complete control)
How it was run: as §1

sedge, umbrella = assay: Test B flooded paddy test; assay type: in vivo, Cyperus difformis; conditions: 250 g ai/ha, Flood, 13 days, 0 to 100 scale (0 no effect, 100 complete control)
How it was run: (§2)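 Species grown to 2-leaf stage; pots flooded 3 cm above soil and compound applied directly to paddy water, depth maintained throughout. After 13 days in greenhouse, plants visually rated against controls on 0–100 scale (0 no effect, 100 complete control); dash means no result.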

foxtail, giant [9] = assay: Test A preemergence; assay type: in vivo, Setaria faberi
How it was run: as §1

wheat [10] = assay: Test A preemergence; assay type: in vivo, Triticum aestivum
How it was run: as §1

ducksalad = assay: Test B flooded paddy test; assay type: in vivo, Heteranthera limosa; conditions: 250 g ai/ha, Flood, 13 days, 0 to 100 scale (0 no effect, 100 complete control)
How it was run: as §2

soybean [11] = assay: Test A postemergence; assay type: in vivo, Glycine max; conditions: postemergence, 10 days; for Plant response rating, Soybean: 500 g ai/ha, visual injury, 0 to 100 scale (0 no effect, 100 complete control)
How it was run: as §1

soybean [12] = assay: Test A preemergence; assay type: in vivo, Glycine max
How it was run: as §1

blackgrass [13] = assay: Test A preemergence; assay type: in vivo, Alopecurus myosuroides
How it was run: as §1

rice = assay: Test B flooded paddy test; assay type: in vivo, Oryza sativa; conditions: 250 g ai/ha, Flood, 13 days, 0 to 100 scale (0 no effect, 100 complete control)
How it was run: as §2

blackgrass [14] = assay: Test A postemergence; assay type: in vivo, Alopecurus myosuroides
How it was run: as §1

barnyardgrass = assay: Test B flooded paddy test; assay type: in vivo, Echinochloa crus-galli; conditions: 250 g ai/ha, Flood, 13 days, 0 to 100 scale (0 no effect, 100 complete control)
How it was run: as §2

pigweed, palmer [15] = assay: Test A preemergence; assay type: in vivo, Amaranthus palmeri
How it was run: as §1

pigweed, palmer [16] = assay: Test A postemergence; assay type: in vivo, Amaranthus palmeri; conditions: postemergence, 10 days; for Plant response rating, Pigweed, Palmer: 500 g ai/ha, visual injury, 0 to 100 scale (0 no effect, 100 complete control)
How it was run: as §1

goosegrass [17] = assay: Test A preemergence; assay type: in vivo, Eleusine indica
How it was run: as §1

foxtail, giant [18] = assay: Test A postemergence; assay type: in vivo, Setaria faberi; conditions: postemergence, 10 days; for Plant response rating, Foxtail, Giant: visual injury, 0 to 100 scale (0 no effect, 100 complete control)
How it was run: as §1

corn [19] = assay: Test A postemergence; assay type: in vivo, Zea mays; conditions: postemergence, 10 days; for Plant response rating, Corn: visual injury, 0 to 100 scale (0 no effect, 100 complete control)
How it was run: as §1

ragweed [20] = assay: Test A preemergence; assay type: in vivo, Ambrosia artemisiifolia
How it was run: as §1

oat, wild [21] = assay: Test A postemergence; assay type: in vivo, Avena fatua; conditions: postemergence, 10 days; for Plant response rating, Oat, Wild: 500 g ai/ha, visual injury, 0 to 100 scale (0 no effect, 100 complete control)
How it was run: as §1

kochia [22] = assay: Test A preemergence; assay type: in vivo, Bassia scoparia
How it was run: as §1

[23] = 125 g ai/ha, visual injury after 10 days, 0 to 100 scale, 0 is no effect, 100 is complete control
[24] = 500 g ai/ha, 0 to 100 scale (0 no effect, 100 complete control), 10 days
[25] = 125 g ai/ha, 0 to 100 scale, 0 no effect, 100 complete control

CCc1ccc(-n2cncn2)cc1C(=O)N1C[C@H](C)Oc2c(Cl)cccc21 [Compound 79]
Plant response rating, Corn (corn [1]; [23]): 20 | Plant response rating, Corn (corn [1]; [24]): 40 | Plant response rating, Wheat (wheat [2]): 50 | Plant response rating, Kochia (kochia [3]; 125 g ai/ha): 30 | Plant response rating, Kochia (kochia [3]; 500 g ai/ha): 60 | Plant response rating, Horseweed (horseweed; 125 g ai/ha): 0 | Plant response rating, Horseweed (horseweed; 500 g ai/ha): 20 | Plant response rating, Oat, Wild (oat, wild [4]; [23]): 90 | Plant response rating, Oat, Wild (oat, wild [4]; [24]): 80 | Plant response rating, Ryegrass, Italian (ryegrass, Italian [5]): 100 | Plant response rating, Ragweed (ragweed [6]): 50 | Plant response rating, Ryegrass, Italian (ryegrass, Italian [7]; [23]): 60 | Plant response rating, Ryegrass, Italian (ryegrass, Italian [7]; [24]): 100 | Plant response rating, Goosegrass (goosegrass [8]; 125 g ai/ha): 20 | Plant response rating, Goosegrass (goosegrass [8]; 500 g ai/ha): 80 | Plant response rating, Sedge, Umbrella (sedge, umbrella): 98 | Plant response rating, Foxtail, Giant (foxtail, giant [9]; [23]): 100 | Plant response rating, Foxtail, Giant (foxtail, giant [9]; [24]): 100 | Plant response rating, Wheat (wheat [10]; [23]): 10 | Plant response rating, Wheat (wheat [10]; [24]): 50 | Plant response rating, Ducksalad (ducksalad): 45 | Plant response rating, Soybean (soybean [11]): 100 | Plant response rating, Soybean (soybean [12]; [23]): 60 | Plant response rating, Soybean (soybean [12]; [24]): 90 | Plant response rating, Blackgrass (blackgrass [13]; [23]): 50 | Plant response rating, Blackgrass (blackgrass [13]; [24]): 70 | Plant response rating, Rice (rice): 0 | Plant response rating, Blackgrass (blackgrass [14]; 125 g ai/ha, postemergence, 10 days, visual injury, 0 to 100 scale (0 no effect, 100 complete control)): 80 | Plant response rating, Blackgrass (blackgrass [14]; 500 g ai/ha, Postemergence, 0 to 100 scale): 80 | Plant response rating, Barnyardgrass (barnyardgrass): 0 | Plant response rating, Pigweed, Palmer (pigweed, palmer [15]; [23]): 40 | Plant response rating, Pigweed, Palmer (pigweed, palmer [15]; [24]): 100 | Plant response rating, Pigweed, Palmer (pigweed, palmer [16]): 90 | Plant response rating, Goosegrass (goosegrass [17]; [23]): 100 | Plant response rating, Goosegrass (goosegrass [17]; [24]): 100 | Plant response rating, Foxtail, Giant (foxtail, giant [18]; 125 g ai/ha): 90 | Plant response rating, Foxtail, Giant (foxtail, giant [18]; 500 g ai/ha): 90 | Plant response rating, Corn (corn [19]; 125 g ai/ha): 40 | Plant response rating, Corn (corn [19]; 500 g ai/ha): 80 | Plant response rating, Ragweed (ragweed [20]; [23]): 0 | Plant response rating, Ragweed (ragweed [20]; [24]): 30 | Plant response rating, Oat, Wild (oat, wild [21]): 80 | Plant response rating, Kochia (kochia [22]; [23]): 20 | Plant response rating, Kochia (kochia [22]; [24]): 40

C[C@H]1CN(C(=O)c2cc(Cl)cc(-n3cncn3)c2)c2cccc(Cl)c2O1 [Compound 81]
Plant response rating, Corn (corn [1]; [23]): 0 | Plant response rating, Corn (corn [1]; [24]): 0 | Wheat plant response rating (wheat [2]; [25]): 10 | Plant response rating, Wheat (wheat [2]): 20 | Kochia plant response rating (kochia [3]; [25]): 50 | Plant response rating, Kochia (kochia [3]; 500 g ai/ha): 90 | Horseweed plant response rating (horseweed; [25]): 0 | Plant response rating, Horseweed (horseweed; 500 g ai/ha): 0 | Plant response rating, Oat, Wild (oat, wild [4]; [23]): 50 | Plant response rating, Oat, Wild (oat, wild [4]; [24]): 80 | Ryegrass, Italian plant response rating (ryegrass, Italian [5]; [25]): 30 | Plant response rating, Ryegrass, Italian (ryegrass, Italian [5]): 100 | Ragweed plant response rating (ragweed [6]; [25]): 20 | Plant response rating, Ragweed (ragweed [6]): 20 | Plant response rating, Ryegrass, Italian (ryegrass, Italian [7]; [23]): 50 | Plant response rating, Ryegrass, Italian (ryegrass, Italian [7]; [24]): 80 | Goosegrass plant response rating (goosegrass [8]; [25]): 10 | Plant response rating, Goosegrass (goosegrass [8]; 500 g ai/ha): 30 | Plant response rating, Sedge, Umbrella (sedge, umbrella): 0 | Plant response rating, Foxtail, Giant (foxtail, giant [9]; [23]): 20 | Plant response rating, Foxtail, Giant (foxtail, giant [9]; [24]): 90 | Plant response rating, Wheat (wheat [10]; [23]): 10 | Plant response rating, Wheat (wheat [10]; [24]): 10 | Plant response rating, Ducksalad (ducksalad): 0 | Soybean plant response rating (soybean [11]; [25]): 100 | Plant response rating, Soybean (soybean [11]): 100 | Plant response rating, Soybean (soybean [12]; [23]): 0 | Plant response rating, Soybean (soybean [12]; [24]): 0 | Plant response rating, Blackgrass (blackgrass [13]; [23]): 30 | Plant response rating, Blackgrass (blackgrass [13]; [24]): 60 | Plant response rating, Rice (rice): 0 | Blackgrass plant response rating (blackgrass [14]; 125 g ai/ha, postemergence, 10 days, 0 to 100 scale, 0 no effect, 100 complete control): 0 | Plant response rating, Blackgrass (blackgrass [14]; 500 g ai/ha, postemergence, 10 days, visual injury, 0 to 100 scale (0 no effect, 100 complete control)): 60 | Plant response rating, Barnyardgrass (barnyardgrass): 0 | Plant response rating, Pigweed, Palmer (pigweed, palmer [15]; [23]): 30 | Plant response rating, Pigweed, Palmer (pigweed, palmer [15]; [24]): 80 | Pigweed, Palmer plant response rating (pigweed, palmer [16]; [25]): 60 | Plant response rating, Pigweed, Palmer (pigweed, palmer [16]): 90 | Plant response rating, Goosegrass (goosegrass [17]; [23]): 70 | Plant response rating, Goosegrass (goosegrass [17]; [24]): 90 | Foxtail, Giant plant response rating (foxtail, giant [18]; [25]): 20 | Plant response rating, Foxtail, Giant (foxtail, giant [18]; 500 g ai/ha): 90 | Corn plant response rating (corn [19]; [25]): 0 | Plant response rating, Corn (corn [19]; 500 g ai/ha): 50 | Plant response rating, Ragweed (ragweed [20]; [23]): 0 | Plant response rating, Ragweed (ragweed [20]; [24]): 0 | Oat, Wild plant response rating (oat, wild [21]; [25]): 10 | Plant response rating, Oat, Wild (oat, wild [21]): 20 | Plant response rating, Kochia (kochia [22]; [23]): 0 | Plant response rating, Kochia (kochia [22]; [24]): 30
